Experimental findings from US20230390287A1, “MODULATORS OF PD-L1/PD-1 INTERACTION AND USES THEREOF” (Ramot at Tel-Aviv University Ltd., priority 2021, published 2023) are described below.

One data set has as its system MDA-MB-231 cells. Nature of the data set: MTT cell viability, MDA-MB-231. It counts as cell-based, human. The following applies: 1, 10, 100 μM, 48 hours. On the procedure: (§1) For the MTT assays, cells were seeded in 96-multi-well plate at a concentration of 7,000 cells per well. Six hours after seeding, cells were treated with the compounds and DMSO as a negative control. Forty-eight hours after the addition of the compounds, 20 μl of MTT (Sigma-Aldrich) dissolved in 5 mg/ml of PBS were added to each well and incubated for 2 hours at 37° C. Solutions were removed, and 100 μl of DMSO were added to each well and gently mixed on a shaker. The absorbance of control and treated wells was read against a DMSO blank at 570 nm using an Epoch micro-plate reader (Biotek). Each hit compound was tested in three replicates, in three independent experiments.
(§2) Human breast cancer MDA-MB-231 and melanoma A375 cells were exposed to increasing concentrations (1, 10, and 100 μM) of selected compounds for 48 hours. Cell viability was normalized to untreated cells. Three different concentrations 100 μM (blue), 10 μM (green) and 1 μM (gray) were tested. Data are presented as mean±SD, N=3, n=3 and N=1, n=3, from three or one independent experiment(s) performed in triplicate.

Data set [1] relates to PD-1/PD-L1 interaction on MDA-MB-231 cells. Nature of the data set: Cell-based PD-1/PD-L1 inhibition (accessible PD-L1 by flow cytometry), MDA-MB-231. Also on record: species or system human. The following applies: 10 μM, 72 hours. How it is done: (§3) PD-1/PD-L1 Inhibition on Human Melanoma and Breast Cancer Cell Lines:
(§4) Cells (0.1×10^6 cells) were tested for PD-1/PD-L1 inhibition by co-incubation of hit compounds, DMSO (background), BMS-202 (Selleckchem) and anti-human PD-L1 (BioxCell, Clone 29E.2A3) (positive controls) for 72 hours in 2 ml DMEM medium. Non-confluent cell cultures were scraped into single-cell suspension, washed with PBS, and counted. Cells were subsequently stained with PD-1 fluorescent proxy for 30 minutes at 4° C., washed twice and resuspended in FACS buffer. Cells were analyzed using BD LSRFortessa (BD Biosciences) and data analyzed with FlowJo software for Mac (FlowJo, LLC 2013-2016). Mean fluorescence intensity (MFI) was derived from each sample. The PD-1/PD-L1 inhibition in cells was measured by a decrease in MFI relative to background.
The selected cell lines were incubated with the selected compounds to assess compound-binding affinities, and consequently PD-1/PD-L1 inhibition. The levels of remaining accessible PD-L1 in these cells were evaluated by FACS analysis using a fluorescence PD-1 proxy. To understand compound activity, different incubation times (24, 48 and 72 hours) were evaluated on MDA-MB-231 breast cancer cell line.
(§5) The remaining accessible PD-L1 was determined by flow cytometry.
In general terms: A flow cytometer gives signals particle by particle.

Data set [2] relates to PD-1/PD-L1 interaction on A375 cells. Nature of the data set: Cell-based PD-1/PD-L1 inhibition (accessible PD-L1 by flow cytometry), A375. Also noted: species or system human. The following applies: A375 stimulated with IFN-γ; 10 μM; 72 hours. On the procedure: as §3, §4, §5
The subject of a further data set is A375 cells. Nature of the data set: MTT cell viability, A375. The following applies: 1, 10, 100 μM, 48 hours. It counts as cell-based, human. How it is done:
as §1, §2

In a further data set the target is recombinant human PD-L1 (Homo sapiens (Human), UniProt Q9NZQ7). Nature of the data set: Differential scanning fluorimetry (DSF) thermal denaturation. The following applies: for thermal shift / stabilization of PD-L1: 100 μM compound, 1% DMSO. It counts as binding. How it is done:
DSF was performed in a C1000 Touch thermal cycler equipped with a CFX96 optical reaction module (Bio Rad). For all fluorescence measurements, samples contained recombinant human PD-L1 (ThermoFisher) at 500 μg/ml in phosphate buffered saline (PBS), pH 7.4, 5% (m/v) Mannitol, 5% (m/v) Trehalose, 0.02% (v/v) Tween® 80, 2.5-fold SYPRO® Orange, 1% (v/v) DMSO (Sigma-Aldrich) and 100 μM of each compound. The PCR plate was sealed with Optical-Quality Sealing Tape (Bio-Rad) and centrifuged at 300 g for 5 minutes. The DSF assay was carried out by increasing the temperature from 20 to 90° C., with a 1 second hold time every 0.2° C. and fluorescence acquisition using the FRET channel, after an initial incubation step of 10 minutes at 20° C. Control experiments in the absence of DMSO and/or compounds were routinely performed in each microplate.
Data were processed using CFX Manager Software V3.0 (Bio-Rad) and the GraphPad Prism 7. Temperature scan curves were fitted to a dose-response sigmoid function (Boltzmann equation) and the melting temperature (Tm values) were obtained from the midpoint of the transition. Normalization of the RFU was also performed to prevent distraction due to different maximum and minimum values upon compounds treatment. The RFU values from different data sets were converted to a common scale 0-1, where 0 represents the fluorescence of the native protein and 1 the fluorescence of the denatured protein. To monitor the binding properties towards each compound, DSF assays were run in the absence and presence of 100 μM compounds using 1% (v/v) DMSO as vehicle control.
To test this hypothesis, the melting temperature (Tm) of the PD-L1 was determined in thermal denaturation assays by differential scanning fluorimetry (DSF) and checked for a shift in the proteins' Tm (ΔTm) in the presence of the PD-L1 inhibitor candidates. The extent of temperature shift is proportional to the compounds' stabilizing effect and thereby used to infer inhibitors' affinity.
(In DSF a fluorescence change marks the thermal transition of the protein.)

A further data set has as its target PD-1/PD-L1 interaction (Homo sapiens (Human), UniProt Q9NZQ7). Nature of the data set: HTRF PD-1/PD-L1 binding assay. It is filed as biochemical. Also noted: key to HTF assay (100 μM): +: positive compounds using 100 μM on HTRF. The following applies: for HTF assay (100 μM): compounds at 100 μM, hits defined as at least 50% inhibition of PD-1/PD-L1 interaction; for dose-response effect in HTRF: 8 doses starting from 100 μM. For orientation: In TR-FRET formats the signal depends on donor and acceptor labels being close together.

Data set [3] can be described thus: Compound stability (no method given). It counts as physicochemical.
Setting [4] is: HTRF dose-response starting from 100 μM.
Setting [5] is: Table A, HTRF dose-response, NA = Not applicable (No dose-response effect).
Setting [6] is: Table B, HTRF dose-response, NA = no dose-response effect.

Chain of PD-1/PD-L1 interaction (Q9NZQ7 19-238): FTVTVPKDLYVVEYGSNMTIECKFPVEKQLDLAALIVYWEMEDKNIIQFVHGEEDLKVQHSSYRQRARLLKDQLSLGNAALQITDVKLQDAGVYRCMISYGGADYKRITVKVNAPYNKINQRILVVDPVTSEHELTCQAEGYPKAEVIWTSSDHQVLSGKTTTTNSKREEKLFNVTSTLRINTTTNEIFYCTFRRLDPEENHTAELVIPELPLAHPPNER
Chain of recombinant human PD-L1 (Q9NZQ7 19-238): as above

On to `COc1nc(OCc2cccc(-c3ccccc3)c2C)ccc1CNCCNC(C)=O` [BMS202, reference compound], for which the “toxicity (cell viability, MTT)” value in the data set on MDA-MB-231 cells and with A375 cells was “higher toxicity at the highest concentration” each time. Moreover, the “impact on PD-L1 accessibility / PD-1/PD-L1 interaction” value in data set [1] and in data set [2] was “did not exhibit a significant impact” throughout.
As to `COc1ccc(-c2nc(N)nc(-c3cc(C)ccc3OC)c2Cl)cc1` [Compound 5], the “thermal shift / stabilization of PD-L1” value on recombinant human PD-L1 is “stabilization of PD-L1”. In addition, the IC50 on PD-1/PD-L1 interaction (setting [4]), at PD-1/PD-L1 interaction (setting [5]) and at PD-1/PD-L1 interaction (setting [6]) was 2440 nM in each case. Further, the “HTF assay (100 μM)” value at PD-1/PD-L1 interaction was “+”.
On to `COc1ccc(-c2nc(N)nc(-c3cc(C)ccc3O)c2Cl)cc1` [Compound 45], for which the IC50 at PD-1/PD-L1 interaction (setting [4]), on PD-1/PD-L1 interaction (setting [5]) and at PD-1/PD-L1 interaction (setting [6]) was 596 nM throughout. Moreover, the “HTF assay (100 μM)” value on PD-1/PD-L1 interaction is listed as “+”.
For the molecule `O=C(c1ccc(-c2ccccc2)cc1)c1nc(-c2ccc(-c3ccccc3)cc2)c[nH]1` [Compound 73], the “toxicity (cell viability, MTT)” value in the data set on MDA-MB-231 cells and with A375 cells was “toxicity higher or similar to that obtained for BMS202” in each case. The “interference with the fluorescence-dye in DSF” value (“interference” for short) at recombinant human PD-L1 was “revealed to interfere”. Further, the IC50 at PD-1/PD-L1 interaction (setting [4]), on PD-1/PD-L1 interaction (setting [5]) and on PD-1/PD-L1 interaction (setting [6]) was 149 nM in each case. Moreover, the “HTF assay (100 μM)” value at PD-1/PD-L1 interaction is “+”.
For `CCCCCCCCSc1nc2ccc(/N=C\c3ccccc3O)cc2s1` [Compound 42], at recombinant human PD-L1, the “thermal shift / stabilization of PD-L1” value is “stabilization of PD-L1”. The IC50 on PD-1/PD-L1 interaction (setting [4]), on PD-1/PD-L1 interaction (setting [5]) and at PD-1/PD-L1 interaction (setting [6]) was 57 nM each time. Besides, the “HTF assay (100 μM)” value on PD-1/PD-L1 interaction was “+”.
Turning to `Cc1cc(C)nc(NS(=O)(=O)c2ccc(NC(=O)c3cccnc3Nc3cccc(Cl)c3)cc2)n1` [Compound 75], the “toxicity (cell viability, MTT)” value with MDA-MB-231 cells and in the data set on A375 cells was “toxicity higher or similar to that obtained for BMS202” in each case. Besides, the “thermal shift / stabilization of PD-L1” value at recombinant human PD-L1 is reported as “stabilization of PD-L1”. Moreover, the 50% inhibitory concentration (IC50) at PD-1/PD-L1 interaction (setting [4]), on PD-1/PD-L1 interaction (setting [5]) and at PD-1/PD-L1 interaction (setting [6]) was 1550 nM in each case. The “HTF assay (100 μM)” value on PD-1/PD-L1 interaction is recorded as “+”.
As for `O=C(NC1CC1)c1ccc(N2CCC(Cc3ccccc3)CC2)nc1` [Compound 38], on PD-1/PD-L1 interaction, the “dose-response effect in HTRF” value is given as “no dose-response was observed” and the “HTF assay (100 μM)” value is “+”.
With `CN(C)CCNC(=O)N1CCCN(c2ncnc3cc(-c4ccccc4)sc23)CC1` [Compound 35], on PD-1/PD-L1 interaction, the “dose-response effect in HTRF” value is reported as “no dose-response was observed” and the “HTF assay (100 μM)” value is “+”.
In the case of `CC1CCCCN1C(=O)NCCc1coc(-c2ccc(F)cc2)n1` (stereo not drawn) [Compound 32], on PD-1/PD-L1 interaction, the “dose-response effect in HTRF” value is recorded as “no dose-response was observed” and the “HTF assay (100 μM)” value is “+”.
Consider `CC(C)(C)OC(=O)N1CCN(c2cc(-c3ccc(Oc4ccccc4)cc3)n[nH]2)CC1` [Compound 30], for which, on PD-1/PD-L1 interaction, the “dose-response effect in HTRF” value is recorded as “no dose-response was observed” and the “HTF assay (100 μM)” value is on record as “+”.
Regarding `CN1CCN(S(=O)(=O)c2ccc(-c3ccc4c(Nc5ccc6nn[nH]c6c5)ccnc4c3)cc2)CC1` [Compound 29], the stability of compound entry in data set [3] was “stability issues”. In addition, the IC50 at PD-1/PD-L1 interaction (setting [4]), at PD-1/PD-L1 interaction (setting [5]) and at PD-1/PD-L1 interaction (setting [6]) was 4000 nM in each case. At PD-1/PD-L1 interaction, the “HTF assay (100 μM)” value is given as “+”.
Take `CCN(CC)CCNc1nc(NCCN(CC)CC)c2nc(-c3ccccc3)c(-c3ccccc3)nc2n1` [Compound 1]: the “toxicity (cell viability, MTT)” value in the data set on MDA-MB-231 cells and in the data set with A375 cells was “toxicity higher or similar to that obtained for BMS202” each time. In addition, at recombinant human PD-L1, the “interference” value is “revealed to interfere”. Besides, the IC50 at PD-1/PD-L1 interaction (setting [4]), on PD-1/PD-L1 interaction (setting [5]) and on PD-1/PD-L1 interaction (setting [6]) was 186 nM each time. The “HTF assay (100 μM)” value at PD-1/PD-L1 interaction is on record as “+”.
With `Cc1cc(SCC(=O)c2ccc3c(ccc4ccccc43)c2)cc(C)[o+]1.[Br-]` [Compound 47], the “thermal shift / stabilization of PD-L1” value at recombinant human PD-L1 is recorded as “stabilization of PD-L1”. Besides, the IC50 on PD-1/PD-L1 interaction (setting [4]), at PD-1/PD-L1 interaction (setting [5]) and at PD-1/PD-L1 interaction (setting [6]) was 149 nM in each case. On PD-1/PD-L1 interaction, the “HTF assay (100 μM)” value is “+”.
For the molecule `CC1(C)OCC(C2OC3OC(C)(C)OC3C2NNC(=O)c2cc3cc(OCc4ccccc4)ccc3[nH]2)O1` (stereo not drawn) [Compound 71], the “interference” value at recombinant human PD-L1 is “revealed to interfere”. The IC50 at PD-1/PD-L1 interaction (setting [4]), at PD-1/PD-L1 interaction (setting [5]) and on PD-1/PD-L1 interaction (setting [6]) was 380 nM throughout. Besides, on PD-1/PD-L1 interaction, the “HTF assay (100 μM)” value is “+”.
For the molecule `Cc1nc(C)c(C(=O)NNC(=O)Cc2ccccc2)cc1C(=O)NNC(=O)Cc1ccccc1` [Compound 84], the “thermal shift / stabilization of PD-L1” value at recombinant human PD-L1 was “stabilization of PD-L1”. The IC50 at PD-1/PD-L1 interaction (setting [4]), on PD-1/PD-L1 interaction (setting [5]) and at PD-1/PD-L1 interaction (setting [6]) was 1090 nM each time. For the same molecule, the “HTF assay (100 μM)” value at PD-1/PD-L1 interaction is reported as “+”.
On to `N#Cc1nc(CC(=O)/C=C/c2ccccc2)c(CC(=O)/C=C/c2ccccc2)nc1C#N` [Compound 18], for which the stability of compound entry in data set [3] is “stability issues”. For the same molecule, the IC50 on PD-1/PD-L1 interaction (setting [4]), at PD-1/PD-L1 interaction (setting [5]) and on PD-1/PD-L1 interaction (setting [6]) was 190 nM each time. For the same molecule, the “HTF assay (100 μM)” value on PD-1/PD-L1 interaction was “+”.
